Target: T1, Pteridine reductase (Trypanosoma brucei brucei, UniProt O76290)
T1 sequence (O76290 whole entry): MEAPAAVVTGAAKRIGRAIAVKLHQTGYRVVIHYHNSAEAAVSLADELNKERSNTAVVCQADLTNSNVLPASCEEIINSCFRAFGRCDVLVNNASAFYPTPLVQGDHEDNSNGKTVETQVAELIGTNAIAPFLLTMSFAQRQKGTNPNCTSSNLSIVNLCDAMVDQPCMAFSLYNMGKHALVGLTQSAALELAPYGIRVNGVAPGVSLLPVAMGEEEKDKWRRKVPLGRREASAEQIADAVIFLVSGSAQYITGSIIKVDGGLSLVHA
Experiment: PTR1 Activity Assay
Conditions: pH 6; 23 °C
Method: TbPTR1 activity was measured in 96-well microtiter plates via reduction of cytochrome c (cytc) as a result of the enzymatic production of tetrahydrobiopterin (H4B). Enzyme activity was monitored by reading absorbance at 550 nm within the linear phase of reaction. Ki (app) values were calculated using a modified Morrison equation.

## CCn1c(N)nc2ccccc21 [2-aminobenzimidazole deriv., 7]
  Ki: > 200 µM

— BindingDB's records for doi:10.1021/jm900414x (University of Dundee, 2009)
